A word on the IC50: it is the concentration at which inhibition is half-maximal.

The assay deals with T1, human farnesyl transferase (FTase) (Homo sapiens, UniProt P49354+P49356).
T1 construct: comprising the cytosolic fraction of homogenized brain tissue; from tissue; host or cells: brain tissue, cytosolic fraction (crude FTase)
As to the kind of experiment: in vitro inhibition of human FTase, farnesyl transferase (3H) scintillation proximity assay. It counts as biochemical. The text has this:
The activity of the compounds of formula 1 and formula 2 as Ras farnesylation inhibitors may be determined by their ability, relative to a control, to inhibit Ras farnesyl transferase in vitro. An example of one such procedure is described below.
A crude preparation of human farnesyl transferase (FTase) comprising the cytosolic fraction of homogenized brain tissue is used for screening compounds in a 96-well assay format. […]
The assay used to measure in vitro inhibition of human FTase is a modification of the method described by Amersham LifeScience for using their Farnesyl transferase (3H) Scintillation Proximity Assay (SPA) kit (TRKQ 7010). FTase enzyme activity is determined in a volume of 100 μl containing 50 mM N-(2-hydroxy ethyl) piperazine-N-(2-ethane sulfonic acid) (HEPES), pH 7.5, 30 mM MgCl2, 20 mM KCl, 25 mM Na2HPO4, 5 mM dithiothreitol (DTT), 0.01% Triton X-100, 5% dimethyl sulfoxide (DMSO), […] of crude FTase, […] [3H]-famesyl pyrophosphate ([3H]-FPP; 36000 dpm/pmole, Amersham LifeScience), and 0.2 μM of biotinylated Ras peptide KTKCVIS (Bt-KTKCVIS) that is N-terminally biotinylated at its alpha amino group and was synthesized and purified by HPLC in house. […] The amount of radioactivity bound to the SPA beads is determined using a MicroBeta 1450 plate counter. […]
Background: Scintillation proximity formats need no separation of bound from free tracer.

Molecules are shown by their SMILES.

Regarding `Cn1cncc1C(N)(c1ccc(Cl)nc1)c1ccc2c(c1)c(-c1cccc(Cl)c1)cc(=O)n2CC1CC1` (single isomer, unassigned; (+)) [Example 8, (+)-6-[Amino-(6-chloro-pyridin-3-yl)-(3-methyl-3H -imidazol-4-yl)-methyl]-4-(3-chloro-phenyl)-1-cyclopropylmethyl-1H-quinolin-2-one], where the note is “compared with the levorotatory isomer, figures not given”, the “activity in inhibiting the enzyme farnesyl protein transferase, relative to the levorotatory isomer” value is on record as “greater activity”. Moreover, where the note is “crude FTase (cytosolic fraction of brain tissue), [3H]-FPP, Bt-KTKCVIS, 45 minute incubation at 37° C., read-out: IC50 value for inhibiting farnesylation of the biotinylated KTKCVIS-peptide”, the concentration for half-maximal inhibition (IC50) was < 500 nM.

For the origin of these results see patent US6479513B2, “Anticancer compound and enantiomer separation method useful for synthesizing said compound” (Pfizer Inc., priority 2000, dated 2002).
